Drawing on patent US8741934B2, “Inhibitors of ion channels” (Pfizer Limited, priority 2007, dated 2014), this text covers IC50 for 27 compounds.

The target of this experiment is T1, hSCN3A sodium channels (Homo sapiens, UniProt Q9NY46).
T1 construct: expressed in transfected cells
The experiment can be described thus: hSCN3A electrophysiology, whole-cell patch-clamp or PatchXpress 7000, estimated IC-50 (Table B). The experiment is classed as cell-based. The conditions noted are these: estimated IC-50; hSCN3A cells, whole-cell patch-clamp or PatchXpress 7000; read-out: SCN3A EIC-50. The protocol: Human Embryonic Kidney (HEK) cells were transfected with an hSCN3A construct using lipofectamine reagent (Invitrogen), using standard techniques. […] Clones were screened for expression using the whole-cell voltage-clamp technique.
HEK cells stably transfected with hSCN3A were maintained in DMEM medium supplemented with 10% heat-inactivated fetal bovine serum and 400 μg/ml G418 sulfate in an incubator at 37° C. with a humidified atmosphere of 10% CO2. […] For electrophysiological studies, cells were removed from the culture flask by brief trypsinization and replated at low density onto glass cover slips. Cells were typically used for electrophysiological experiments within 24 to 72 h after plating.
All recordings were made at room temperature (22-24° C.) using AXOPATCH 200B amplifiers and PCLAMP software (Axon Instruments, Burlingame, Calif.) or PatchXpress 7000 hardware and associated software (Axon Instruments, Burlingame, Calif.).
Current records were acquired at 20 to 50 KHz and filtered at 5 to 10 KHz.
HEK cells stably transfected with hSCN3A were viewed under Hoffman contrast optics and placed in front of an array of flow pipes emitting either control or compound-containing extracellular solutions. All compounds were dissolved in dimethyl sulfoxide to make 10 mM stock solutions, which were then diluted into extracellular solution to attain the final concentrations desired.
The voltage-dependence of inactivation was determined by applying a series of depolarizing prepulses (8 sec long in 10 mV increments) from a negative holding potential. The voltage was then immediately stepped to 0 mV to assess the magnitude of the sodium current. Currents elicited at 0 mV were plotted as a function of prepulse potential to allow estimation of the voltage midpoint of inactivation (V1/2). Cells were then voltage clamped at the empirically determined V1/2.
Compounds were tested for their ability to inhibit hSCN3A sodium channels by activating the channel with a 20 msec voltage step to 0 mV following an 8 second conditioning prepulse to the empirically determined V1/2 (Table B). Compound effect (% inhibition) was determined by difference in current amplitude before and after application of test compounds. […] Inhibition values <20% and >80% were excluded from the calculation.
In some cases electrophysiological assays were conducted with PatchXpress 7000 hardware and associated software (Molecular Devices Corp) (Table B). All assay buffers and solutions were identical to those used in conventional whole-cell voltage clamp experiments described above. hSCN3A cells were grown as above to 50%-80% confluency and harvested by trypsinization. Trypsinized cells were washed and resuspended in extracellular buffer at a concentration of 1×10^6 cells/ml. The onboard liquid handling facility of the PatchXpress was used for dispensing cells and application of test compounds. Determination of the voltage midpoint of inactivation was as described for conventional whole-cell recordings. Cells were then voltage-clamped to the empirically determined V1/2 and current was activated by a 20 msec voltage step to 0 mV.

T1 sequence (Q9NY46 whole entry): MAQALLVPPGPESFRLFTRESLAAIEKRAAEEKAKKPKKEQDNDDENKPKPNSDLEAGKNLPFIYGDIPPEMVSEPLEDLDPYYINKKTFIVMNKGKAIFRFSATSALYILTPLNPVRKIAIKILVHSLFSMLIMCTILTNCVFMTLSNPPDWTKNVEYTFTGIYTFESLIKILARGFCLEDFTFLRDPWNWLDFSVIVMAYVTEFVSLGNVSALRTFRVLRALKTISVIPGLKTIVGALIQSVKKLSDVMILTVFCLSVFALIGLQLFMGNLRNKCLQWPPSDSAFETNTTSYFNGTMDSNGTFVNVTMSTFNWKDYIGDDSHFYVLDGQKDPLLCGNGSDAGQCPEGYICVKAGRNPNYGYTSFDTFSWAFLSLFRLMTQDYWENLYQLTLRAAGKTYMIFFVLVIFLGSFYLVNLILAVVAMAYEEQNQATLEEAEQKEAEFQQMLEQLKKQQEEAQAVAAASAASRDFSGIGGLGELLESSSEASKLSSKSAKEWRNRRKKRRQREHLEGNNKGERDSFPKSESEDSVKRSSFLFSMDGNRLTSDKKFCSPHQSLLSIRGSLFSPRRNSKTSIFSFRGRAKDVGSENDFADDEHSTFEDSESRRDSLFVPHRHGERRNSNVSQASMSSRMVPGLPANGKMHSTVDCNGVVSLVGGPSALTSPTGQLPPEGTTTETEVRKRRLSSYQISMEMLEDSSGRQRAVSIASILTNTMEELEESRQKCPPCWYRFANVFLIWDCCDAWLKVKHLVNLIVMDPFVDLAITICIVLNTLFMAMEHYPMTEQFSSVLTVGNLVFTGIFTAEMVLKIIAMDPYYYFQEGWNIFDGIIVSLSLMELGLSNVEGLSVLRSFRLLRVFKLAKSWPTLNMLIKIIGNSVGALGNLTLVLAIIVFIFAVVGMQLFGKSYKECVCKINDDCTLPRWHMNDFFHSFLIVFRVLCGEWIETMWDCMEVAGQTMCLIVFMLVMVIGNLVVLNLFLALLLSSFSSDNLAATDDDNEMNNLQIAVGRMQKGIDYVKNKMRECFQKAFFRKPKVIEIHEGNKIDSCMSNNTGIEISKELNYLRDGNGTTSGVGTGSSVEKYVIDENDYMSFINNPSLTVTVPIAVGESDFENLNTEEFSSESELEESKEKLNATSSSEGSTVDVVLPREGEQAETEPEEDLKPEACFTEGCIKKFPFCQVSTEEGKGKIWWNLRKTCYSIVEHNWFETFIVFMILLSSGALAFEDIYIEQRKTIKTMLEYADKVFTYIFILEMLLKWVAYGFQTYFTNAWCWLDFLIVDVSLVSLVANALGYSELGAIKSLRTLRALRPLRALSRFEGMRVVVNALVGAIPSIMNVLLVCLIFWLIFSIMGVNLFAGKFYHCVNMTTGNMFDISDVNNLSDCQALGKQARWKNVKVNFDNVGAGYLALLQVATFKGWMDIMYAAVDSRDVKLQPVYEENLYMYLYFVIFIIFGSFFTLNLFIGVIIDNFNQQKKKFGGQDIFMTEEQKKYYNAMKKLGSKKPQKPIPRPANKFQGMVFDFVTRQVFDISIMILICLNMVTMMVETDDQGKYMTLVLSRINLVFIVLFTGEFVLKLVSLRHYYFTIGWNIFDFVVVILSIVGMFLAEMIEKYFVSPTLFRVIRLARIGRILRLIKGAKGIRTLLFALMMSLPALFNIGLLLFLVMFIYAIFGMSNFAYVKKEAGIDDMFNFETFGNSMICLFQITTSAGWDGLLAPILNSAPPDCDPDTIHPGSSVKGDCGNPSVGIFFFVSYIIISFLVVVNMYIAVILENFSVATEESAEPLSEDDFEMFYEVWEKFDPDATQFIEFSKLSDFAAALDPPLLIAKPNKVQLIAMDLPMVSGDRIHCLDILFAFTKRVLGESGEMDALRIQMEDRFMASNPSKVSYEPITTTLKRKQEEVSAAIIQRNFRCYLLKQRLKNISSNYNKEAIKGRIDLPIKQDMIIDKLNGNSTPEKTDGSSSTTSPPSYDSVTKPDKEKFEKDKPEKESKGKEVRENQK

`O=C(NCc1cccc(OC(F)F)c1)c1ccc(S(=O)(=O)Nc2nccs2)cc1` [Example 63, N-[3-(difluoromethoxy)benzyl]-4-[(1,3-thiazol-2-ylamino)sulfonyl]benzamide]: the IC50 was 1090 nM.
With `O=C(NC1(c2ccc(Cl)cc2)CC1)c1ccc(S(=O)(=O)Nc2nccs2)cc1` [Example 139, N-[1-(4-chlorophenyl)cyclopropyl]-4-[(1,3-thiazol-2-ylamino)sulfonyl]benzamide], the IC50 is 1660 nM.
Turning to `CC(NC(=O)c1ccc(S(=O)(=O)Nc2ncns2)c(F)c1)c1ccc(C(F)(F)F)cc1` (stereo not drawn) [Example 320, 3-Fluoro-4-[(1,2,4-thiadiazol-5-ylamino)sulfonyl]-N-{1-[4-(trifluoromethyl)phenyl]ethyl}benzamide], the IC50 is 2660 nM.
Next, `O=C(NCc1ccc(C(F)(F)F)c(F)c1)c1ccc(S(=O)(=O)Nc2ncc(Cl)s2)c(F)c1` [Example 310, 4-{[(5-Chloro-1,3-thiazol-2-yl)amino]sulfonyl}-3-fluoro-N-[3-fluoro-4-(trifluoromethyl)benzyl]benzamide]: 50 nM; `O=C(NCc1ccc(C(F)(F)F)c(F)c1)c1ccc(S(=O)(=O)Nc2ncns2)cc1Cl` [Example 375, 2-Chloro-N-[3-fluoro-4-(trifluoromethyl)benzyl]-4-[(1,2,4-thiadiazol-5-ylamino)sulfonyl]benzamide]: 450 nM; `CC(C)(NC(=O)c1ccc(S(=O)(=O)Nc2nccs2)cc1)c1ccc(C(F)(F)F)cc1` [Example 123, N-{1-methyl-1-[4-(trifluoromethyl)phenyl]ethyl}-4-[(1,3-thiazol-2-ylamino)sulfonyl]benzamide]: 1440 nM.
Next, `O=C(NCc1ccc(Cl)c(F)c1)c1ccc(S(=O)(=O)Nc2ncc(Cl)s2)c(Cl)c1` [Example 369, 3-Chloro-N-(4-chloro-3-fluorobenzyl)-4-{[(5-chloro-1,3-thiazol-2-yl)amino]sulfonyl} benzamide]: 6170 nM.
Turning to `O=C(NCc1cccc(OC(F)(F)F)c1)c1ccc(S(=O)(=O)Nc2ncc(Cl)s2)c(Cl)c1` [Example 364, 3-Chloro-4-{[(5-chloro-1,3-thiazol-2-yl)amino]sulfonyl}-N-[3-(trifluoromethoxy)benzyl]benzamide], the IC50 was 2180 nM.
On to `Cc1ccc(CNC(=O)c2ccc(S(=O)(=O)Nc3nccs3)cc2)cc1Cl` [Example 400, N-(3-chloro-4-methylbenzyl)-4-[(1,3-thiazol-2-ylamino)sulfonyl] benzamide], for which the IC50 was 70 nM.
In the case of `Cn1cc(NS(=O)(=O)c2ccc(C(=O)NCc3ccc(C(F)(F)F)cc3)cc2)cn1` [Example 10, 4-{[(1-Methyl-1H-pyrazol-4-yl)amino]sulfonyl}-N-[4-(trifluoromethyl)benzyl]benzamide], the IC50 is 1510 nM.
`COc1ccccc1C1CCCN1C(=O)c1ccc(S(=O)(=O)Nc2nccs2)cc1` (stereo not drawn) [Example 254, 4-{[2-(2-Methoxyphenyl)pyrrolidin-1-yl]carbonyl}-N-1,3-thiazol-2-yl-benzenesulfonamide]: the IC50 is more than 1000 nM.
As for `O=C(NCc1ccc(Cl)c(Cl)c1)c1ccc(S(=O)(=O)Nc2ncc(Cl)s2)c(F)c1` [Example 311, 4-{[(5-Chloro-1,3-thiazol-2-yl)amino]sulfonyl}-N-(3,4-dichlorobenzyl)-3-fluorobenzamide], the IC50 is 60 nM.
Next, `O=C(NC1Cc2ccccc2C1)c1ccc(S(=O)(=O)Nc2nccs2)cc1` [Example 173, N-(2,3-dihydro-1H-inden-2-yl)-4-[(1,3-thiazol-2-ylamino)sulfonyl]benzamide]: 2670 nM; `Cc1ccccc1CNC(=O)c1ccc(S(=O)(=O)Nc2nccs2)cc1` [Example 91, N-(2-methylbenzyl)-4-[(1,3-thiazol-2-ylamino)sulfonyl]benzamide]: 1220 nM; `O=C(NCc1ccc(F)c(C(F)(F)F)c1)c1ccc(S(=O)(=O)Nc2ncc(Cl)s2)c(Cl)c1` [Example 370, 3-Chloro-4-{[(5-chloro-1,3-thiazol-2-yl)amino]sulfonyl}-N-[4-fluoro-3-(trifluoromethyl)benzyl]benzamide]: 1220 nM.
Consider `O=C(NCCc1cccc(Cl)c1)c1ccc(S(=O)(=O)Nc2nccs2)cc1` [Example 70, N-[2-(3-chlorophenyl)ethyl]-4-[(1,3-thiazol-2-ylamino)sulfonyl]benzamide], for which the IC50 was more than 300 nM.
Regarding `O=C(NCc1cccc(-c2ccccc2)c1)c1ccc(S(=O)(=O)Nc2nccs2)cc1` [Example 411, N-(biphenyl-3-ylmethyl)-4-[(1,3-thiazol-2-ylamino)sulfonyl] benzamide], the IC50 was 120 nM.
`Cc1nn(C)c(C)c1NS(=O)(=O)c1ccc(C(=O)NCc2ccc(C(F)(F)F)cc2)cc1` [Example 27, N-[4-(Trifluoromethyl)benzyl]-4-{[(1,3,5-trimethyl-1H-pyrazol-4-yl)amino]sulfonyl}benzamide]: the IC50 is 23300 nM.
On to `CC1(c2ccc(Cl)cc2)CCN(C(=O)c2ccc(S(=O)(=O)Nc3nccs3)cc2)CC1` [Example 195, 4-{[4-(4-Chlorophenyl)-4-methylpiperidin-1-yl]carbonyl}-N-1,3-thiazol-2-yl-benzenesulfonamide], for which the IC50 is 280 nM.
Next, `O=C(NCc1ccc(OC(F)(F)F)cc1)c1ccc(S(=O)(=O)Nc2ncc(Cl)s2)c(Cl)c1` [Example 362, 3-Chloro-4-{[(5-chloro-1,3-thiazol-2-yl)amino]sulfonyl}-N-[4-(trifluoromethoxy)benzyl]benzamide]: 1090 nM; `O=C(NCc1ccc(C(F)(F)F)c(F)c1)c1ccc(S(=O)(=O)Nc2ncns2)c(F)c1` [Example 319, 3-Fluoro-N-[3-fluoro-4-(trifluoromethyl)benzyl]-4-[(1,2,4-thiadiazol-5-ylamino)sulfonyl]benzamide]: 70 nM.
Regarding `O=C(NCc1ccc(C(F)(F)F)nc1)c1ccc(S(=O)(=O)Nc2nccs2)cc1` [Example 408, 4-[(1,3-Thiazol-2-ylamino)sulfonyl]-N-{[6-(trifluoromethyl)pyridin-3-yl]methyl}benzamide], the IC50 was 1090 nM.
Take `O=C(NCc1ccc(Cl)c(C(F)(F)F)c1)c1ccc(S(=O)(=O)Nc2nccs2)cc1` [Example 395, N-[4-chloro-3-(trifluoromethyl)benzyl]-4-[(1,3-thiazol-2-ylamino)sulfonyl]benzamide]: the IC50 was 30 nM.
Consider `O=C(NCc1ccc(Cl)c(F)c1)c1ccc(S(=O)(=O)Nc2ncc(Cl)s2)cc1` [Example 37, N-(4-Chloro-3-fluorobenzyl)-4-{[(5-chloro-1,3-thiazol-2-yl)amino]sulfonyl}benzamide], for which the IC50 was 70 nM.
On to `N#Cc1ccc(CNC(=O)c2ccc(S(=O)(=O)Nc3nccs3)cc2)cc1` [Example 416, N-(4-cyanobenzyl)-4-[(1,3-thiazol-2-ylamino)sulfonyl] benzamide], for which the IC50 is 860 nM.
As to `O=C(NCc1ccc(OC(F)(F)F)c(F)c1)c1ccc(S(=O)(=O)Nc2ncns2)cc1Cl` [Example 376, 2-Chloro-N-[3-fluoro-4-(trifluoromethoxy)benzyl]-4-[(1,2,4-thiadiazol-5-ylamino)sulfonyl] benzamide], the IC50 was 590 nM.
For the compound `O=C(NCc1ccccc1OC(F)(F)F)c1ccc(S(=O)(=O)Nc2nccs2)cc1` [Example 78, 4-[(1,3-Thiazol-2-ylamino)sulfonyl]-N-[2-(trifluoromethoxy)benzyl]benzamide], the IC50 is 1630 nM.
